The record followed here is US12365687B2 (Hoffmann-La Roche Inc., priority 2021, dated 2025).

The structures appear in SMILES notation.

Assay [1] concerns the target human GABAA α1β3γ2 receptor (Homo sapiens (Human), UniProt P14867+P18507). The experiment in a line: Radioligand binding assay for γ2-containing GABAA subtypes, [3H]Flumazenil competition (α1β3γ2). The note with it: for γ2/γ1 Selectivity Ratio: Ki α1β3γ2 (nM)/Ki α2β2γ1 (nM); for LogSel: Log[Ki α1β3γ2 (nM)/Ki α2β2γ1 (nM)].
For assay [2], the target named is human GABAA α2β2γ1 receptor (Homo sapiens (Human), UniProt P47869+Q8N1C3). The experiment in a line: Radioligand binding assay for γ1-containing GABAA subtypes, [3H]RO7239181 competition (α2β2γ1).
For assay [3], the target named is α2β2γ1 GABAA receptor subtype (Homo sapiens (Human), UniProt P47869+Q8N1C3). The experiment in a line: Two-electrode voltage clamp electrophysiology in Xenopus oocytes expressing GABAA receptors (modulation of GABA EC20 current). Type of assay: cell-based. To be noted: for Efficacy (GABA)%: % modulation of GABA EC20 = 100*(Fold increase-1), α2β2γ1 oocytes, compound at approx. 30-fold Ki; for Fold increase h-GABA-A α2β2γ1 oocyte @ 30-fold Ki: Xenopus oocytes expressing α2β2γ1, compound at approx. 30-fold its Ki α2β2γ1, GABA EC20 current. An outline of the steps:
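Two-electrode voltage clamp at −80 mV, room temperature, 3-5 days after mRNA injection into oocytes. GABA applied at EC20 for 1.5 min, twice, with compound during second application; at least 3 oocytes per concentration. Efficacy = extremum of point-by-point current ratio, expressed as 100×(fold increase−1).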
In general terms: Two-electrode voltage clamp holds a large cell at a set potential and records current.

For assay [4], the target named is human GABAA α5β2γ1 receptor (Homo sapiens (Human), UniProt P31644+Q8N1C3). The experiment in a line: Radioligand binding assay for γ1-containing GABAA subtypes, [3H]RO7239181 competition (α5β2γ1).
Setting [5] is: Ki h-GABAA α2β2γ1, [3H]RO7239181 competition binding, human GABAA α2β2γ1.
The mark [6] stands for this setting: Ki h-GABAA α2β2γ1, displacement of [3H]RO7239181, membranes of HEK293F cells expressing human receptors, means of two determinations.

A word on the Ki: it is a dissociation constant, usually derived from enzyme kinetics or from competition with a known ligand. The low end stands for tighter binding, the high end for weaker binding. As to `C[C@@H]1N=C(c2c(F)cccc2F)c2c(ccc(Cl)c2Cl)-n2nc(C(=O)NCC(F)F)nc21` [Example 59, (4S)-7,8-dichloro-N-(2,2-difluoroethyl)-6-(2,6-difluorophenyl)-4-methyl-4H-[1,2,4]triazolo[1,5-a][1,4]benzodiazepine-2-carboxamide], in assay [1], the Ki came to 640 nM, the “γ2/γ1 Selectivity Ratio” value amounted to 90.9 and the LogSel is listed as 1.96. In assay [2] (setting [5]), this compound came in with a Ki of 7 nM. This compound returned a Ki in assay [2] (setting [6]) of 7 nM. Also, in assay [3], the “Efficacy (GABA)%” value worked out at 74% and the “Fold increase h-GABA-A α2β2γ1 oocyte @ 30-fold Ki” value amounted to 1.74. This compound also returned a Ki in assay [4] of 1.26 nM.
As to `COC1CN(C(=O)Nc2nc3n(n2)-c2ccc(Cl)c(Cl)c2C(c2c(F)cccc2F)=N[C@H]3C)C1` [Example 60, 3-methoxy-N-[(4S)-7,8-dichloro-6-(2,6-difluorophenyl)-4-methyl-4H-[1,2,4]triazolo[1,5-a][1,4]benzodiazepin-2-yl]azetidine-1-carboxamide], in assay [1], the Ki came out at 602 nM, the “γ2/γ1 Selectivity Ratio” value is recorded as 49.1 and the LogSel was determined as 1.69. Besides, the Ki in assay [2] (setting [5]) is 12.3 nM. In assay [2] (setting [6]), this compound yielded a Ki of 12.3 nM. In addition, in assay [3], the “Efficacy (GABA)%” value is given as 107% and the “Fold increase h-GABA-A α2β2γ1 oocyte @ 30-fold Ki” value is reported as 2.07. The same compound displayed a Ki in assay [4] of 1.49 nM.
With `C[C@@H]1N=C(c2c(F)cccc2F)c2c(ccc(Cl)c2Cl)-n2nc(C(=O)NC3(C#N)CC3)nc21` [Example 61, (4S)-7,8-dichloro-N-(1-cyanocyclopropyl)-6-(2,6-difluorophenyl)-4-methyl-4H-[1,2,4]triazolo[1,5-a][1,4]benzodiazepine-2-carboxamide], the Ki is 585 nM in assay [1], 4.2 nM in assay [2] (setting [5]), 4.18 nM in assay [2] (setting [6]) and 1.45 nM in assay [4]. Besides, the “γ2/γ1 Selectivity Ratio” value in assay [1] is 140.0. This compound also returned a LogSel in assay [1] of 2.15. In addition, the “Efficacy (GABA)%” value in assay [3] was determined as 99%. Besides, the “Fold increase h-GABA-A α2β2γ1 oocyte @ 30-fold Ki” value in assay [3] is listed as 1.99.
On to `COC1CN(C(=O)c2nc3n(n2)-c2ccc(Cl)c(Cl)c2C(c2ncccc2F)=NC3)C1` [Example 62, [7,8-dichloro-6-(3-fluoro-2-pyridyl)-4H-[1,2,4]triazolo[1,5-a][1,4]benzodiazepin-2-yl]-(3-methoxyazetidin-1-yl)methanone], for which, in assay [1], the Ki amounted to 773 nM, the “γ2/γ1 Selectivity Ratio” value amounted to 85.7 and the LogSel was 1.93. Also, the affinity in assay [2] (setting [5]) corresponds to a Ki of 9 nM. Affinity in assay [2] (setting [6]) was put at a Ki of 9 nM. Further, in assay [3], the “Efficacy (GABA)%” value is given as 93% and the “Fold increase h-GABA-A α2β2γ1 oocyte @ 30-fold Ki” value was 1.93. In assay [4], this compound yielded a Ki of 3.7 nM.
With `C[C@H](O)CNC(=O)c1nc2n(n1)-c1ccc(Cl)c(Cl)c1C(c1c(F)cccc1F)=N[C@H]2C` [Example 63, (4S)-7,8-dichloro-6-(2,6-difluorophenyl)-4-methyl-N-[(2S)-2-hydroxypropyl]-4H-[1,2,4]triazolo[1,5-a][1,4]benzodiazepine-2-carboxamide], the Ki in assay [1] worked out at 606 nM; in assay [2] (setting [5]), 4.2 nM; in assay [2] (setting [6]), 4.25 nM; in assay [4] it was 1.33 nM. Besides, the “γ2/γ1 Selectivity Ratio” value in assay [1] amounted to 142.6. The same compound showed a LogSel in assay [1] of 2.15. In assay [3], the “Efficacy (GABA)%” value is listed as 79%. For the same compound, the “Fold increase h-GABA-A α2β2γ1 oocyte @ 30-fold Ki” value in assay [3] is given as 1.79.
For `CCNC(=O)c1nc2n(n1)-c1ccc(Cl)c(Cl)c1C(c1c(F)cccc1F)=N[C@H]2C` [Example 64, (4S)-7,8-dichloro-6-(2,6-difluorophenyl)-N-ethyl-4-methyl-4H-[1,2,4]triazolo[1,5-a][1,4]benzodiazepine-2-carboxamide], in assay [1], the affinity corresponds to a Ki of 889 nM, the “γ2/γ1 Selectivity Ratio” value was 165.6 and the LogSel came to 2.22. This compound returned a Ki in assay [2] (setting [5]) of 5.4 nM. The Ki in assay [2] (setting [6]) amounted to 5.4 nM. For the same compound, in assay [3], the “Efficacy (GABA)%” value is on record as 75% and the “Fold increase h-GABA-A α2β2γ1 oocyte @ 30-fold Ki” value is on record as 1.75. In assay [4], this compound showed a Ki of 1.16 nM.
Regarding `C[C@@H]1N=C(c2c(F)cccc2F)c2c(ccc(Cl)c2Cl)-n2nc(C(=O)NC[C@@H](C)O)nc21` [Example 65, (4S)-7,8-dichloro-6-(2,6-difluorophenyl)-4-methyl-N-[(2R)-2-hydroxypropyl]-4H-[1,2,4]triazolo[1,5-a][1,4]benzodiazepine-2-carboxamide], in assay [1], the affinity corresponds to a Ki of 492 nM, the “γ2/γ1 Selectivity Ratio” value came out at 84.8 and the LogSel is recorded as 1.93. For the same compound, the Ki in assay [2] (setting [5]) came out at 5.8 nM. Further, the Ki in assay [2] (setting [6]) came to 5.8 nM. In assay [3], the “Efficacy (GABA)%” value was found to be 80% and the “Fold increase h-GABA-A α2β2γ1 oocyte @ 30-fold Ki” value turned out to be 1.80. In assay [4], this compound came in with a Ki of 0.5 nM.
For the compound `C[C@@H]1N=C(c2c(F)cccc2F)c2c(ccc(Cl)c2Cl)-n2nc(N3CC(O)C3)nc21` [Example 66, 1-[(4S)-7,8-dichloro-6-(2,6-difluorophenyl)-4-methyl-4H-[1,2,4]triazolo[1,5-a][1,4]benzodiazepin-2-yl]azetidin-3-ol], in assay [1], the Ki was found to be 241 nM, the “γ2/γ1 Selectivity Ratio” value is recorded as 39.7 and the LogSel is 1.60. Moreover, the Ki in assay [2] (setting [5]) worked out at 6.1 nM. This compound showed a Ki in assay [2] (setting [6]) of 6.1 nM. In addition, in assay [3], the “Efficacy (GABA)%” value was found to be 58% and the “Fold increase h-GABA-A α2β2γ1 oocyte @ 30-fold Ki” value was found to be 1.58. Further, in assay [4], the Ki amounted to 1.24 nM.
As to `CC(=O)NCc1nc2n(n1)-c1ccc(Cl)c(Cl)c1C(c1c(F)cccc1F)=N[C@H]2C` [Example 67, N-[[(4S)-7,8-dichloro-6-(2,6-difluorophenyl)-4-methyl-4H-[1,2,4]triazolo[1,5-a][1,4]benzodiazepin-2-yl]methyl]acetamide], in assay [1], the affinity, expressed as Ki, was 503 nM; the “γ2/γ1 Selectivity Ratio” value was determined as 96.5; the LogSel is 1.98. The compound also displayed a Ki in assay [2] (setting [5]) of 5.2 nM. In assay [2] (setting [6]), this compound showed an inhibitory constant (Ki) of 5.2 nM. Further, in assay [3], the “Efficacy (GABA)%” value was 47% and the “Fold increase h-GABA-A α2β2γ1 oocyte @ 30-fold Ki” value stood at 1.47. Affinity in assay [4] was put at a Ki of 0.79 nM.
On to `C[C@@H]1N=C(c2c(F)cccc2F)c2c(ccc(Cl)c2Cl)-n2cc(C(=O)N3CC(O)C3)nc21` [Example 68, (3-hydroxyazetidin-1-yl)-[(4S)-7,8-dichloro-6-(2,6-difluorophenyl)-4-methyl-4H-imidazo[1,2-a][1,4]benzodiazepin-2-yl]methanone], for which, in assay [1], the affinity corresponds to a Ki of 318 nM, the “γ2/γ1 Selectivity Ratio” value came out at 44.0 and the LogSel is given as 1.64. In assay [2] (setting [5]), the Ki was found to be 7.2 nM. The Ki in assay [2] (setting [6]) was 7.2 nM. In assay [3], the “Efficacy (GABA)%” value is given as 107% and the “Fold increase h-GABA-A α2β2γ1 oocyte @ 30-fold Ki” value came out at 2.07. The same compound yielded a Ki in assay [4] of 1.48 nM.
As for `C[C@@H]1N=C(c2c(F)cccc2F)c2c(ccc(Cl)c2Cl)-n2nc(S(N)(=O)=O)nc21` [Example 69, (4S)-7,8-dichloro-6-(2,6-difluorophenyl)-4-methyl-4H-[1,2,4]triazolo[1,5-a][1,4]benzodiazepine-2-sulfonamide], the Ki was 1150 nM in assay [1], 19.2 nM in assay [2] (setting [5]), 19.2 nM in assay [2] (setting [6]) and 0.77 nM in assay [4]. Also, the “γ2/γ1 Selectivity Ratio” value in assay [1] is given as 60.1. Also, the LogSel in assay [1] was determined as 1.78. Further, in assay [3], the “Efficacy (GABA)%” value was found to be 97%. Moreover, the “Fold increase h-GABA-A α2β2γ1 oocyte @ 30-fold Ki” value in assay [3] was 1.97.
